Test results published in publication PMC4558462, “A new small molecule inhibitor of soluble guanylate cyclase” (Bioorganic & Medicinal Chemistry, 2015).
“Also recorded” adds a separate entry of the source. Where two headings read alike, the source gives them in different places.

Tests used:
purified bovine lung sGC = target: T1, purified bovine lung sGC (Bos taurus, UniProt P16068+P19687); experiment: Soluble guanylate cyclase activity assay (cGMP radioimmunoassay); assay type: biochemical
T1 construct: screened at 100 μM against purified bovine lung sGC; purchased Enzo lifesciences ALX-202-039-C005; host or cells: bovine lung
T1 sequence (P19687 1-691): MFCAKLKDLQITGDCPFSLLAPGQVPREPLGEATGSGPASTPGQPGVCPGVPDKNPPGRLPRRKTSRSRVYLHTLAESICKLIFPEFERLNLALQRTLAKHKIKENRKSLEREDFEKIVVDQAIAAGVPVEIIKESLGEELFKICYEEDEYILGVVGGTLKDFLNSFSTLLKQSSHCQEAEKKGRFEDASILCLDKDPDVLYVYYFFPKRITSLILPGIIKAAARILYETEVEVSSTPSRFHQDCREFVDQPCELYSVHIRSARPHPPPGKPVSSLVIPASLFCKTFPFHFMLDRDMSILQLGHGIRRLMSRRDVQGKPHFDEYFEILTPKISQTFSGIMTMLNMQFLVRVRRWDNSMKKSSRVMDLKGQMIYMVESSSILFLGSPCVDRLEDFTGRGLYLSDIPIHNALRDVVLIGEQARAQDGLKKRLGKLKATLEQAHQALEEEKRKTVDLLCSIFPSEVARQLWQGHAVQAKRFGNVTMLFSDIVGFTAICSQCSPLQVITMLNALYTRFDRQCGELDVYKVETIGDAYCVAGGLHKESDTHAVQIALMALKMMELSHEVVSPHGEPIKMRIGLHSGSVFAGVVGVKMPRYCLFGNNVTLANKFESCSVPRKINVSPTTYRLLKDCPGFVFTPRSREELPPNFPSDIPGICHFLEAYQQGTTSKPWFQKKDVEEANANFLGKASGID
T1 sequence (P16068 1-619): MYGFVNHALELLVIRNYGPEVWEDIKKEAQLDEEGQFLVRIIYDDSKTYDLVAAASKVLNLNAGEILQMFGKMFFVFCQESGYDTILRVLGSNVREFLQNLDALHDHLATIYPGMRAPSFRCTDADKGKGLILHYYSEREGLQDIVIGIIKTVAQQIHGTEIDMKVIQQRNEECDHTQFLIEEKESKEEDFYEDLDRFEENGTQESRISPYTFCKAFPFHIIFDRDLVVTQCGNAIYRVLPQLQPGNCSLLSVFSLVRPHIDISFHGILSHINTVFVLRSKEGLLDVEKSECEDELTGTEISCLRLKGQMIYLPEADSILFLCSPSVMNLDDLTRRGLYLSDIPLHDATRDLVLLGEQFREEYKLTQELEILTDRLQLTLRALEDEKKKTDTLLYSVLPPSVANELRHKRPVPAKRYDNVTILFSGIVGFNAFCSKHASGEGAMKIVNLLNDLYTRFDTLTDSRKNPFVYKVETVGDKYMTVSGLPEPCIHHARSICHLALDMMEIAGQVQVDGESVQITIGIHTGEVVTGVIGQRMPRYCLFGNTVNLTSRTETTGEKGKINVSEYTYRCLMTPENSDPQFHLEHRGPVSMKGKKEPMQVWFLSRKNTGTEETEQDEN
Method: Virtual screening was performed by similarity searches using MACCS fingerprints at 85% and 75% Tanimoto of commercial libraries and the selected compounds were screened at 100 μM against purified bovine lung sGC using diethylamine NONOate (30 nM) as the NO donor. Enzyme activity was determined by measuring cGMP production using a standard cGMP [^3H] radioimmunoassay.[21,22]
[…] Compounds were added at 100 μM prior to adding the NO donor DEA/NO (30 nM) or clamped NO concentrations. cGMP generation was allowed to proceed for two minutes, after which aliquots were withdrawn and inactivated by boiling in 50 mM Tris, 4 mM EDTA buffer. cGMP formation was measured by a standard radioimmunoassay.

[1] = test system: NMDA-stimulated cGMP production in cerebellar slices; experiment: NMDA-stimulated cGMP production in rat cerebellar slices; assay type: cell-based; conditions: 100 μM
Method: The ability of compound 10 to inhibit sGC in tissues was explored using NMDA-stimulated cGMP production in cerebellar slices, which depends on NO formation. Rat cerebellar slices were pre-incubated with compound 10 then treated with NMDA.
Brain slices methods were conducted as described in detail.[37,38] Briefly, 0.4 mm thick sagittal cerebellar slices from 10-day-old animals were cut using a McIlwain tissue chopper. Experiments were carried out in the presence of the broad spectrum phosphodiesterase inhibitor IBMX (1 mM; 10 min preincubation) and, when appropriate, antagonists were added 10 min prior to IBMX. Following treatment, brain slices were inactivated in boiling Tris–HCl buffer (50 mM, pH 7.5) containing EDTA (4 mM) and homogenised by sonication after which aliquots were removed for measurement of protein (bicinchoninic acid method) and cGMP (radioimmunoassay).

## O=[N+]([O-])c1ccc2nc(Nc3ccc(O)cc3)c(Nc3ccc(O)cc3)nc2c1 [Compound 10, 4,4′-((6-Nitroquinoxaline-2,3-diyl)bis(azanediyl))diphenol]
Purified bovine lung sGC; GC activator cinaciguat 20 nM
  Hill slope: 4
Purified bovine lung sGC; GC activator cinaciguat 20 nM, no NO, read-out: IC50 (μM) ± SE
  IC50: 25 ± 4 µM
Purified bovine lung sGC; GC activator cinaciguat 1 μM
  Hill slope: 4
Purified bovine lung sGC; GC activator cinaciguat 1 μM, no NO, read-out: IC50 (μM) ± SE
  IC50: 37 ± 40 µM
Purified bovine lung sGC; NO 0.3 nM, GTP 50 μM, read-out: IC50, NO-stimulated cGMP production by isolated sGC
  IC50: 21 ± 3 µM
Purified bovine lung sGC; NO 0.3 nM, GTP 200 μM, read-out: IC50, NO-stimulated cGMP production by isolated sGC
  IC50: 33 ± 4 µM
Purified bovine lung sGC; NO 0.3 nM, GTP 1000 μM, read-out: IC50, NO-stimulated cGMP production by isolated sGC
  IC50: 33 ± 9 µM
Purified bovine lung sGC; NO 10 nM, GTP 50 μM, read-out: IC50, NO-stimulated cGMP production by isolated sGC
  IC50: 19 ± 2 µM
Purified bovine lung sGC; NO 10 nM, GTP 200 μM, read-out: IC50, NO-stimulated cGMP production by isolated sGC
  IC50: 19 ± 1 µM
Purified bovine lung sGC; NO 10 nM, GTP 1000 μM, read-out: IC50, NO-stimulated cGMP production by isolated sGC
  IC50: 34 ± 2 µM
Purified bovine lung sGC; cinaciguat-activated, no NO
  inhibition of cGMP production after enzyme activation with cinaciguat (in words): capable of inhibiting cGMP production
Purified bovine lung sGC; read-out: % inhibition of sGC activity at 100 μM compound
  inhibition at 100 µM: 99%
Purified bovine lung sGC; read-out: sGC activity% inhibition at 100 μM
  inhibition at 100 µM: 56.2 ± 22.4%
[1]
  inhibition of NMDA-induced cGMP generation: almost completely; also recorded: inhibits cGMP production
